# Experiments:
# [1] = test system: CD4^+T cells from small intestine lamina propria and spleen; assay: Oral Listeria monocytogenes infection (and naïve mice) treated with RA or LE540: IL-17^+ and Foxp3^+ CD4 T cells; type: in vivo, mouse
# Source text: Listeria monocytogenes (strain WT LMOVA) was used. Mice were orally infected (gavage) with 5×10^8 CFU of L. monocytogenes. Mice received i.p. injections of vehicle, RA or LE540 on the same day and 2 days after infection. Mice were sacrificed 5 days post-infection for analysis.
# Every second day, in a interval of two weeks, naïve mice received gavage of either vehicle, RA or LE540.
# Liver lymphocytes were isolated using 37.5% isotonic Percoll (GE Healthcare, USA), as previously described [Y. Kinjo et al, Nat Immunol 7, 978 (2006)]. Intestinal lymphocytes were isolated and prepared as previously described [Aranda et al., J Immunol 158, 3464 (1997)]. Briefly, small and large intestines were removed and placed in chilled HBSS media containing 5% FCS. The intestines were carefully cleaned from the mesentery and flushed of fecal content. Intestines were opened longitudinally and then cut into 1 cm pieces. The intestinal tissue was transferred to a 250-ml Erlenmeyer flasks containing 25 ml of preheated HBSS complemented with 2% FCS and 1 mM DTT (Sigma, USA) and shaken at 200 rpm for 40 min at 37° C. The tissue suspension was passed through a stainless steel sieve into 50-ml conical tubes and the cells were pelleted by centrifugation at 1200 rpm for 10 min at 4° C. The cell pellet was resuspended in complete HBSS, layered over a discontinuous 40/70% Percoll gradient, and centrifuged at 2000 rpm for 30 min. Cells from the 40/70% interface were collected, washed and resuspended in complete RPMI media. These purified cells constituted the intraepithelial lymphocyte (IEL) population. To isolate the lamina propria lymphocytes (LPL), the remaining intestinal tissue in the stainless steel sieve was minced and transferred to conical tubes. The minced pieces were resuspended in 20 ml of complete RPMI containing 1 mg/ml of collagenase (Sigma, USA) and shaken at 200 rpm for 40 min at 37° C. The tissue suspension was collected and passed through a 70 μm cell strainer and the cells were pelleted by centrifugation at 1200 rpm. The cells were then resuspended and layered onto a 40/70% Percoll gradient, centrifugated and processed as described above for the IEL preparation.
# (§1) To block non-specific staining, the 2.4G2 anti-CD16/32 antibody was added. […] For intracellular cytokine staining, cells obtained from in vitro cultures or isolated IELs were incubated for 4-5 hours with 50 ng/ml PMA, 750 ng/ml Ionomycin (both Sigma, USA) and 10 μg/ml Brefeldin A (Invitrogen, USA) in a tissue culture incubator at 37° C.
# For Foxp3 staining, no stimulation with PMA/Ionomycin was performed, with the exceptions of FIGS. 8B and 9A. In these cases, the time of incubation with PMA/Ion was reduced to 3.5 hours. Intracellular Foxp3 staining was performed as per the eBioscience's Foxp3-staining kit protocol.
# [2] = test system: naïve CD4^+T cells; assay: Re-stimulation (secondary cultures) of in vitro differentiated CD4 T cells: Foxp3 and IL-17 staining; type: cell-based, mouse; details: cells first stimulated with TGF-β and IL-6, rested
# Method: (§2) The culture medium used for dendritic cell-T cell cultures was Iscove's modified Dulbecco medium (IMDM) (Gibco, USA) supplemented with 10% heat-inactivated FCS, 2 mM L-glutamine, 100 U/ml penicillin, 100 μg/ml streptomycin, and 5 mM β-mercaptoethanol (all Sigma, USA). […] For dendritic cell-T cell cultures, 2×10^4 dendritic cells and 1×10^5 T cells were cultured in a volume of 200 μl (96-well plates). For irradiated APC-T cell cultures, 5×10^5 APCs and 1×10^5 T cells were cultured in a volume of 200 μl in 96-well plates (2×10^6 APCs and 0.5×10^6 T cells per well in 48-well plates). […] For the study shown in FIG. 4A, after sorting of naive CD4^+ cells (CD25^−CD44^lowCD62L^+), cells were washed twice in PBS+0.1% BSA, counted and labeled with 2 μM of CFSE (Carboxyfluorescein diacetate, succinimidyl ester) (Molecular Probes, USA) at a concentration of 5−10×10^6 cells per ml in PBS-0.1% BSA.
# as §1
# (§3) For Foxp3 staining, no stimulation with PMA/Ionomycin was performed, with the exceptions of FIGS. 8B and 9A. […]
# [3] = test system: CD8^+ spleen T cells; assay: IL-17^+ cell generation from CD8^+ T cells activated with TGF-β and IL-6
# [4] = test system: CD4^+CD25^−T cells; assay: TGF-β-dependent Foxp3 induction (Treg differentiation) in CD4 T cells with dendritic cells or APCs; type: cell-based, mouse
# Method: For CD4^+CD25^− T cell isolation, spleens were removed, teased into cell-single suspensions and filtered through a 70 μm cell strainer (Fisher Scientific, USA). CD4^+CD25^−T cells were isolated by negative selection after incubation with a mix of specific biotin-conjugated mAbs (anti-CD8, CD11b, CD11ε, CD25, CD45R (B220), NK1.1, and TER119) at 1/200 dilution, and anti-biotin magnetic microbeads (25-40 μl per spleen) (Miltenyi Biotec, USA).
# For dendritic cells isolation, spleen and MLN were chopped and digested by collagenase type D (Roche, USA) for 30 min at room temperature. Digested tissues were treated with 5 mM of EDTA for additional 5 min and mashed through a 70 μm cell strainer. Subsequently, CD11c^+ cells were enriched by positive selection using anti-CD11c microbeads according to the manufacturer's protocol (Miltenyi Biotec, USA). Enriched populations were stained with CD45-APC, CD 11c-PE, I-A^b-FITC and TCR β and sorted for TCRβ^−CD45^+CD11c^+I-Ab^+ by flow cytometry using a FACS-DIVA cell sorter (USA).
# as §2, §3
structure (smiles),measurement,setting,value
"CC1=C(/C=C/C(C)=C/C=C/C(C)=C/C(=O)O)C(C)(C)CCC1 [RA, All-trans retinoic acid]","Th-17 mucosal T cells (IL-17 staining of CD4^+T cells, small intestine lamina propria)","[1]; 5 days after oral L. monocytogenes infection, i.p. days 0 and 2, RA 300 μg/mouse, LE540 100 μg/mouse",measurable reduction
same,differentiation / number of mucosal Foxp3^+Treg cells (small intestine lamina propria),"[1]; Lm challenged mice, 5 days after oral infection",not found to measurably enhance
same,spleen Foxp3^+CD4 cells,[1]; Lm infected mice (2 i.p. injections) and naïve mice (2-week gavage),No effect
same,committed Th-17 cells in secondary cultures,[2],also suppressed committed Th-17 cells
same,generation of IL-17^+ T cells from cytotoxic CD8^+ T lymphocytes,"[3]; WT or OT-I TCR^+ CD8^+ T cells, TGF-β and IL-6",again able to inhibit this
same,Foxp3 / Th-17 differentiation of CD8 T cells under conditions that promote Th-17 differentiation,[3]; cultured with RA,converted to Foxp3^+ cells with a decrease in Th-17 differentiation
same,TGF-β-dependent Foxp3 induction by MLN dendritic cells,"[4]; OT-II CD4 cells, OVAp, TGF-β1, LE135 1 μM, RA 100 nM",enhanced
same,TGF-β-dependent Foxp3 induction under low amounts of TGF-β,"[4]; TGF-β 0.5 ng/ml, TCR-transgenic CD4 cells",still enhances

# Reference: patent publication US20090136470A1, “REGULATORY T CELLS AND METHODS OF MAKING AND USING SAME” (priority 2007, published 2009)
